Laboratory results taken from patent publication US9051290B2, “Biaryl phosphodiesterase inhibitors” (LEO PHARMA A/S, priority 2010, dated 2015).

Biological target: Human recombinant PDE4 (Genbank accession no NM—006203) (Homo sapiens, UniProt Q08499)
Assay: PDE4 assay (SPA, cleavage of cAMP)
Assay type: biochemical
Details: 1 hour incubation, test compound up to 10 μM, cAMP 1×10^−5M, read-out: PDE4 IC50 range
Description: Human recombinant PDE4 (Genbank accession no NM_006203) was incubated for 1 hour with the test compound at concentrations up to 10 μM, with cAMP (1×10^−5M), and with a low amount (0.021 MBq) of radioactively labelled cAMP. At the end of the incubation, the cleavage of the substrate was evaluated by the binding of the AMP product to SPA beads, which generate chemoluminescence when bound to the radioactive tracer. The AMP product inhibited the binding of the radioactive tracer to the beads, and the luminescent signal was competed.
The results were calculated as the molar concentrations resulting in 50% inhibition of the substrate cleavage compared to controls samples, and are expressed as a range of IC50 (M).
The compounds of the present invention were tested in the PDE4 assay.

Chain of Human recombinant PDE4 (Genbank accession no NM—006203) (Q08499 1-673 isoform Q08499-2): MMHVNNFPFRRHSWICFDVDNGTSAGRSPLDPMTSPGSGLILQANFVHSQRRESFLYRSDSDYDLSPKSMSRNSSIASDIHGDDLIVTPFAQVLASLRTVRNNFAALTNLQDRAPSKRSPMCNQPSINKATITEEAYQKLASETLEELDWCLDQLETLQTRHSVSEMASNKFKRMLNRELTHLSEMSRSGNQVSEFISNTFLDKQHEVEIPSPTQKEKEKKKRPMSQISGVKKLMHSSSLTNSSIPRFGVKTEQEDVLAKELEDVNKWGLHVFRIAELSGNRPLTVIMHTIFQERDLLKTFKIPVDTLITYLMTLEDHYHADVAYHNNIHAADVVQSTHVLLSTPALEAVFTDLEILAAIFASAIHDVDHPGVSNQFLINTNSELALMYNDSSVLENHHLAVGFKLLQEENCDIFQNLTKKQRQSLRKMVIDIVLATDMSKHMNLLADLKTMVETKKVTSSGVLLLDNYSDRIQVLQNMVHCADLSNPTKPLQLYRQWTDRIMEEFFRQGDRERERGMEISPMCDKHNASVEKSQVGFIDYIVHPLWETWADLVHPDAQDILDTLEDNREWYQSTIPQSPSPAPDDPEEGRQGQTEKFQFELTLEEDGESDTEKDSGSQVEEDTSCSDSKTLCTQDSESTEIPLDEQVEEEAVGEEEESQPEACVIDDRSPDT

SMILES | IC50 [nM]
COc1ccc(-c2cccc3c2COC3=O)c(OCc2ccc(C(=O)N(C)C)cc2)c1OC [Compound 118, 4-[2,3-Dimethoxy-6-(1-oxo-1,3-dihydro-isobenzofuran-4-yl)-phenoxymethyl]-N,N-dimethyl-benzamide] | < 100
COc1ccc(-c2ccc3c(c2)CNC3=O)c(OCC2(CO)COC2)c1OC [Compound 151, 5-[2-(3-Hydroxymethyl-oxetan-3-ylmethoxy)-3,4-dimethoxy-phenyl]-2,3-dihydro-isoindol-1-one] | 100 to 500
COc1ccc(-c2cccc3c2CCC3=O)c(OCCC(C)C)c1OC [Compound 101, 4-[3,4-Dimethoxy-2-(3-methyl-butoxy)-phenyl]-indan-1-one] | < 100
COc1ccc(-c2ccc3c(c2)CCC3=O)c(OCc2ccc(C(=O)N(C)C)cc2)c1OC [Compound 127, 4-[2,3-Dimethoxy-6-(1-oxo-indan-5-yl)-phenoxymethyl]-N,N-dimethyl-benzamide] | < 100
COc1ccc(-c2ccc3c(c2)CCC3=O)c(OCC2(CO)COC2)c1OC [Compound 129, 5-[2-(3-Hydroxymethyl-oxetan-3-ylmethoxy)-3,4-dimethoxy-phenyl]-indan-1-one] | 100 to 500
COc1ccc(-c2ccc3c(c2)OCC3=O)c(OCC(C)C)c1OC [Compound 176, 6-(2-Isobutoxy-3,4-dimethoxy-phenyl)-benzofuran-3-one] | 100 to 500
COc1ccc(-c2ccc3c(c2)CNC3=O)c(OCC(C)(C)C)c1OC [Compound 148, 5-[2-(2,2-Dimethyl-propoxy)-3,4-dimethoxy-phenyl]-2,3-dihydro-isoindol-1-one] | < 100
COc1ccc(-c2cccc3c2CNC3=O)c(OCC(C)C)c1OC [Compound 173, 4-(2-Isobutoxy-3,4-dimethoxy-phenyl)-2,3-dihydro-isoindol-1-one] | 100 to 500
COc1ccc(-c2ccc3c(c2)CNC3=O)c(OCc2ccc(C(N)=O)cc2)c1OC [Compound 153, 4-[2,3-Dimethoxy-6-(1-oxo-2,3-dihydro-1H-isoindol-5-yl)-phenoxymethyl]-benzamide] | < 100
CNC(=O)c1ccc(COc2c(-c3ccc4c(c3)CNC4=O)ccc(OC)c2OC)cc1 [Compound 155, 4-[2,3-Dimethoxy-6-(1-oxo-2,3-dihydro-1H-isoindol-5-yl)-phenoxymethyl]-N-methyl-benzamide] | < 100
COc1ccc(-c2ccc(OC)c3c2CCC3=O)c(OCC(C)C)c1OC [Compound 168, 4-(2-Isobutoxy-3,4-dimethoxy-phenyl)-7-methoxy-indan-1-one] | ≥ 500
COc1ccc(-c2ccc3c(c2)CNC3=O)c(OCCC(C)C)c1OC [Compound 147, 5-[3,4-Dimethoxy-2-(3-methyl-butoxy)-phenyl]-2,3-dihydro-isoindol-1-one] | < 100
CNC(=O)c1ccc(COc2c(-c3ccc4c(c3)CCC4=O)ccc(OC)c2OC)cc1 [Compound 126, 4-[2,3-Dimethoxy-6-(1-oxo-indan-5-yl)-phenoxymethyl]-N-methyl-benzamide] | < 100
CNC(=O)c1ccc(COc2c(-c3ccc4c(c3)COC4=O)ccc(OC)c2OC)cc1 [Compound 138, 4-[2,3-Dimethoxy-6-(1-oxo-1,3-dihydro-isobenzofuran-5-yl)-phenoxymethyl]-N-methyl-benzamide] | < 100
COc1ccc(-c2ccc3c(c2)COC3=O)c(OCc2ccc(C(=O)N(C)C)cc2)c1OC [Compound 139, 4-[2,3-Dimethoxy-6-(1-oxo-1,3-dihydro-isobenzofuran-5-yl)-phenoxymethyl]-N,N-dimethyl-benzamide] | < 100
COc1ccc(-c2ccc3c(c2)CNC3=O)c(OCc2cccc(S(N)(=O)=O)c2)c1OC [Compound 158, 3-[2,3-Dimethoxy-6-(1-oxo-2,3-dihydro-1H-isoindol-5-yl)-phenoxymethyl]-benzenesulfonamide] | < 100
COc1ccc(-c2ccc3c(c2)COC3=O)c(OCc2cccc(C(N)=O)c2)c1OC [Compound 146, 3-[2,3-Dimethoxy-6-(1-oxo-1,3-dihydro-isobenzofuran-5-yl)-phenoxymethyl]-benzamide] | < 100
COc1ccc(-c2ccc3c(c2)CCC3=O)c(OCC2CCC2)c1OC [Compound 122, 5-(2-Cyclobutylmethoxy-3,4-dimethoxy-phenyl)-indan-1-one] | < 100
COc1ccc(-c2ccc3c(c2)CCC3=O)c(OCc2ccc(S(C)(=O)=O)cc2)c1OC [Compound 130, 5-[2-(4-Methanesulfonyl-benzyloxy)-3,4-dimethoxy-phenyl]-indan-1-one] | < 100
COc1ccc(-c2ccc3c(c2)CCC3=O)c(OCc2ccc(C(N)=O)cc2)c1OC [Compound 124, 4-[2,3-Dimethoxy-6-(1-oxo-indan-5-yl)-phenoxymethyl]-benzamide] | < 100
COc1ccc(-c2ccc3c(c2)CCC3=O)c(OCc2cccc(C(=O)N(C)C)c2)c1OC [Compound 128, 3-[2,3-Dimethoxy-6-(1-oxo-indan-5-yl)-phenoxymethyl]-N,N-dimethyl-benzamide] | < 100

Continued, values first:

IC50 [nM] | SMILES
< 100 | COc1ccc(-c2cccc3c2CCC3=O)c(OCC2(COC(=O)NC(C)C)CC2)c1OC [Compound 180, Isopropyl-carbamic acid 1-[2,3-dimethoxy-6-(1-oxo-indan-4-yl)-phenoxymethyl]-cyclopropylmethyl ester]
< 100 | COc1ccc(-c2cccc3c2CCC3=O)c(OCc2cccc(S(C)(=O)=O)c2)c1OC [Compound 113, 4-[2-(3-Methanesulfonyl-benzyloxy)-3,4-dimethoxy-phenyl]-indan-1-one]
< 100 | CNC(=O)c1ccc(COc2c(-c3cccc4c3CCC4=O)ccc(OC)c2OC)cc1 [Compound 108, 4-[2,3-Dimethoxy-6-(1-oxo-indan-4-yl)-phenoxymethyl]-N-methyl-benzamide]
< 100 | CCOC(=O)NCC1(COc2c(-c3cccc4c3CCC4=O)ccc(OC)c2OC)CC1 [Compound 186, {1-[2,3-Dimethoxy-6-(1-oxo-indan-4-yl)-phenoxymethyl]-cyclopropylmethyl}-carbamic Acid Ethyl Ester]
< 100 | COc1ccc(-c2cccc3c2CCC3=O)c(OCC2(CO)CC2)c1OC [Compound 177, 4-[2-(1-Hydroxymethyl-cyclopropylmethoxy)-3,4-dimethoxy-phenyl]-indan-1-one]
≥ 500 | COc1ccc(-c2ccc3c(c2)CCC3=O)c(OCC(C)(C)C(=O)NC(C)C)c1OC [Compound 208, 3-[2,3-Dimethoxy-6-(1-oxo-indan-5-yl)-phenoxy]-N-isopropyl-2,2-dimethyl-propionamide]
< 100 | CCCC(=O)NCC1(COc2c(-c3cccc4c3CCC4=O)ccc(OC)c2OC)CC1 [Compound 184, N-{1-[2,3-Dimethoxy-6-(1-oxo-indan-4-yl)-phenoxymethyl]-cyclopropylmethyl}-butyramide]
< 100 | COCC(C)(C)COc1c(-c2cccc3c2CCC3=O)ccc(OC)c1OC [Compound 217, 4-[3,4-Dimethoxy-2-(3-methoxy-2,2-dimethyl-propoxy)-phenyl]-indan-1-one]
< 100 | CCNC(=O)OCC(C)(C)COc1c(-c2cccc3c2CCC3=O)ccc(OC)c1OC [Compound 211, Ethyl-carbamic acid 3-[2,3-dimethoxy-6-(1-oxo-indan-4-yl)-phenoxy]-2,2-dimethyl-propyl ester]
100 to 500 | CCCNC(=O)C(C)(C)COc1c(-c2ccc3c(c2)CCC3=O)ccc(OC)c1OC [Compound 209, 3-[2,3-Dimethoxy-6-(1-oxo-indan-5-yl)-phenoxy]-2,2-dimethyl-N-propyl-propionamide]
< 100 | CCNC(=O)OCC(C)(C)COc1c(-c2ccc3c(c2)COC3=O)ccc(OC)c1OC [Compound 210, Ethyl-carbamic acid 3-[2,3-dimethoxy-6-(1-oxo-1,3-dihydro-isobenzofuran-5-yl)-phenoxy]-2,2-dimethyl-propyl Ester]
< 100 | CCOC(=O)NCC1(COc2c(-c3cccc4c3CCC4=O)ccc(OC)c2OC)COC1 [Compound 196, {3-[2,3-Dimethoxy-6-(1-oxo-indan-4-yl)-phenoxymethyl]-oxetan-3-ylmethyl}-carbamic acid ethyl ester]
< 100 | COCC1(COc2c(-c3cccc4c3CCC4=O)ccc(OC)c2OC)COC1 [Compound 190, 4-[3,4-Dimethoxy-2-(3-methoxymethyl-oxetan-3-ylmethoxy)-phenyl]-indan-1-one]
< 100 | COc1ccc(-c2cccc3c2CCC3=O)c(OCC2(CO)COC2)c1OC [Compound 104, 4-[2-(3-Hydroxymethyl-oxetan-3-ylmethoxy)-3,4-dimethoxy-phenyl]-indan-1-one]
< 100 | COc1ccc(-c2cccc3c2CCC3=O)c(OCc2cccc(C(=O)N(C)C)c2)c1OC [Compound 110, 3-[2,3-Dimethoxy-6-(1-oxo-indan-4-yl)-phenoxymethyl]-N,N-dimethyl-benzamide]
100 to 500 | COc1ccc(-c2ccc3c(c2)CCC3=O)c(OCC(C)(C)C(=O)N(C)C)c1OC [Compound 207, 3-[2,3-Dimethoxy-6-(1-oxo-indan-5-yl)-phenoxy]-2,2,N,N-tetramethyl-propionamide]
< 100 | COc1ccc(-c2cccc3c2CCC3=O)c(OCc2ccc(C(=O)N(C)C)cc2)c1OC [Compound 109, 4-[2,3-Dimethoxy-6-(1-oxo-indan-4-yl)-phenoxymethyl]-N,N-dimethyl-benzamide]
< 100 | COc1ccc(-c2cccc3c2CCC3=O)c(OCC(C)(C)CO)c1OC [Compound 107, 4-[2-(3-Hydroxy-2,2-dimethyl-propoxy)-3,4-dimethoxy-phenyl]-indan-1-one]
< 100 | COCC(C)(C)COc1c(-c2ccc3c(c2)CNC3=O)ccc(OC)c1OC [Compound 219, 5-[3,4-Dimethoxy-2-(3-methoxy-2,2-dimethyl-propoxy)-phenyl]-2,3-dihydro-isoindol-1-one]
